The text below walks through data of article PMC4493701, “Quantitative and qualitative analysis of the novel antitumor 1,3,4-oxadiazole derivative (GLB) and its metabolites using HPLC-UV and UPLC-QTOF-MS” (Scientific Reports, 2015).

Like-named read-outs stand apart in the source and are kept apart here.

The nature of this data set: Pharmacokinetic study in rats after single oral administration of GLB (HPLC-UV in plasma). Type of data set: in vivo, Sprague-Dawley rats. Particulars: for concentration at 0.5 h / concentration at 1 h / concentration at 2 h / concentration at 4 h / concentration at 6 h / concentration at 8 h / concentration at 12 h / concentration at 24 h / concentration at 36 h / concentration at 48 h / concentration at 72 h / concentration at 96 h: oral; for concentration at 0.5 h: 0.5 h after single oral GLB 100 mg/kg; for concentration at 1 h: 1 h after single oral GLB 100 mg/kg; for concentration at 2 h: 2 h after single oral GLB 100 mg/kg; for concentration at 4 h: 4 h after single oral GLB 100 mg/kg; for concentration at 6 h: 6 h after single oral GLB 100 mg/kg; for concentration at 8 h: 8 h after single oral GLB 100 mg/kg; for concentration at 12 h: 12 h after single oral GLB 100 mg/kg; for concentration at 24 h: 24 h after single oral GLB 100 mg/kg; for concentration at 48 h: 48 h after single oral GLB 100 mg/kg; for concentration at 72 h: 72 h after single oral GLB 100 mg/kg; for concentration at 96 h: 96 h after single oral GLB 100 mg/kg; for Tmax / half-life / Cmax / AUC(0-inf) / AUC(0-t): rat plasma, single oral GLB 100 mg/kg; for AUC(0-t): read-out: AUC(0-96). As for the experimental part:
The validated bioanalytical method was applied to the detection of GLB concentration in plasma after a single oral administration of GLB (100 mg/kg, n = 6) in rats. At 0.5 h after oral administration, the prototype drug of GLB was detected in rat plasma. The peak concentration of GLB was at 6 h (2.78 ± 0.89 μg/mL) with quantifiable at the 36 h (0.14 ± 0.18 μg/mL). At 96 h time point, low concentration of GLB was still detectable in rat plasma (Fig. 2B).
HPLC-UV analyses were performed with a DIONEX Ultimate 3000 HPLC system (Thermo Fisher Scientific, MA, USA), which included a double-ternary pump (DGP-3600SD), a temperature controlled automatic sampler (WPS-3000SL), a column temperature box (TCC-3000SD), and a ultraviolet (UV) detector (VWD-3400). The UV detection wavelength was set at 300 nm. The chromatographic separation was achieved on a reversed-phase Alltima C18 analytical column (150 mm × 4.6 mm; 5 μm), and the mobile phase was the mixture of acetonitrile and distilled water (65:35, v/v), running at the flow rate of 1.0 mL/min. The temperature of column box was kept at 25 °C. The injection volume was 20 μL. The HPLC data was processed using Chromeleon^TM 6.8 software (Thermo Fisher Scientific, MA, USA).
Sprague-Dawley rats (Male, 210 ± 20 g, 7–8 weeks) were provided by the Department of Experimental Animal, Beijing University (Beijing, China). Environmental controls for the animal room were set at 22 ± 3 °C with 50 ± 20% relative humidity. This animal study was performed in strict accordance with the recommendations in the Guide for the Care and Use of Laboratory Animals of China Association for Laboratory Animal Science. All animal care and experimental protocols were approved by the Animal Care Committee of Peking University Health Science Center. All sacrifice was performed under pentobarbitone anesthesia, and every effort was made to minimize suffering.
Rats were fasted 12 h prior to the study and were allowed access to food 4 h after oral dosing. Eighteen rats were divided randomly into six groups and rats were sampled at interval in each group. The blood samples at each time point were collected from six rats. The rats were dosed with a suspension of GLB (100 mg/kg, in 0.5% sodium carboxymethyl cellulose CMC-Na solution) and the blood samples were collected at the predose, 0.5, 1, 2, 4, 6, 8, 12, 24, 36, 48, 72 and 96 h post-dosing. The blood samples were centrifuged at 2800 rpm (1473 × g) for 20 min and the plasma was stored at −20 °C until analyzed.
The 400 μL plasma sample was transferred into a glass tube, followed by the addition of 25 μL of IS and 2 mL of extraction solvent ethyl acetate. The mixture was vortexed for 3 min to extract GLB and IS from plasma sample and then centrifuged at 2800 rpm (1473 × g) for 20 min. The upper organic phase was transferred into a glass tube. The sample was extracted twice with 2 mL of ethyl acetate for liquid-liquid extraction. The combined upper organic phases were evaporated to dryness at 37 °C under a gentle stream of nitrogen gas. The residue was reconstituted with 100 μL of methanol and was injected 20 μL into the HPLC system. In addition, in order to perform mass spectrometry analyses, the residue was reconstituted with 150 μL of methanol-water (v/v, 1:1), and then centrifuged at 14000 rpm (17968 × g) for 15 min, the upper liquid was transferred into sample vials and 10 μL was injected for UPLC-QTOF/MS analysis.
The pharmacokinetic parameters of GLB were calculated by a non-compartmental pharmacokinetic analysis method using Drug and Statistical Version 3.0 (DAS 3.0) software (the Mathematical Pharmacology Committee, Chinese Pharmacological Society, China). The maximum peak concentration of the drug in plasma (Cmax) and the time to reach the maximum concentration (Tmax) were estimated from the experimental data. The area under the plasma concentration-time curves from 0 to infinity (i.e., AUC0-∞) and from 0 to 96 h (AUC0-96) were calculated by the trapezoidal summation. […]

Where [1] appears, read: male, Sprague-Dawley, rat, plasma, 100 mg/kg, rat, M1/M2 relative to GLB standard curve.
Setting [2] is: male, Sprague-Dawley, rat, plasma, 100 mg/kg, 36 h after single oral GLB 100 mg/kg, rat, M1/M2 relative to GLB standard curve.
Where [3] appears, read: male, Sprague-Dawley, rat, plasma, po, 100 mg/kg, n = 6, read-out: Tmax.
[4] abbreviates: male, Sprague-Dawley, n = 6, M1/M2 relative concentrations from GLB standard curve.

Usually Tmax stands for the time at which the peak concentration occurs. In general, half-life refers to the time needed for the level to fall by half in the phase considered. Lower therefore signals fast loss. By Cmax is commonly meant the highest concentration seen after dosing. The AUC(0-inf) is the area under the concentration-time curve extrapolated to infinity. Molecule `CC(=O)N1N=C(c2ccc(Br)cc2)OC12C1OC(C)(C)OC1COC21COC(C)(C)O1` (stereo not shown) [GLB, Fructose-based 3-acetyl-2,3-dihydro-1,3,4-oxadiazole] returned a Plasma concentration (36 h after single oral GLB 100 mg/kg, rat, M1/M2 relative to GLB standard curve) of 140 ± 180 ng/mL. Besides, under setting [1], the concentration at 0.5 h was determined as 43 ± 151 ng/mL, the concentration at 1 h was 673 ± 65 ng/mL, the concentration at 2 h is 1400 ± 210 ng/mL and the concentration at 4 h came to 1460 ± 210 ng/mL. Under setting [1], this molecule returned a concentration at 6 h of 2780 ± 887 ng/mL, a concentration at 8 h of 1600 ± 656 ng/mL, a concentration at 12 h of 1470 ± 672 ng/mL and a concentration at 24 h of 262 ± 241 ng/mL. Further, under setting [1], the concentration at 48 h amounted to 58 ± 63 ng/mL, the concentration at 72 h was determined as 11 ± 5 ng/mL and the concentration at 96 h turned out to be 16 ± 17 ng/mL. Moreover, the concentration at 36 h under setting [2] turned out to be 139 ± 183 ng/mL. Also, under setting [3], the Tmax stood at 6 h. For the same molecule, under “male, Sprague-Dawley, n = 6”, the half-life was 9.24 ± 4.74 h. Under “male, Sprague-Dawley, n = 6, text, read-out: Cmax”, the Cmax is 2780 ± 890 ng/mL. In addition, under setting [4], the AUC(0-inf) came out at 33500 ± 9050 ng·h/mL and the AUC(0-t) is 33300 ± 9100 ng·h/mL. For the same molecule, the Cmax (n = 6, M1/M2 relative concentrations from GLB standard curve) was determined as 2780 ± 890 ng/mL.

Under setting [1], `CC(=O)N1N=C(c2ccc(Br)cc2)OC1(C1OC(C)(C)OC1C(=O)O)C1(O)COC(C)(C)O1` (stereo not shown) [M1] displayed a concentration at 0.5 h of 27 ± 14 ng/mL, a concentration at 1 h of 91 ± 21 ng/mL, a concentration at 2 h of 242 ± 55 ng/mL and a concentration at 4 h of 336 ± 59 ng/mL. Under setting [1], the concentration at 6 h stood at 517 ± 113 ng/mL, the concentration at 8 h was found to be 443 ± 137 ng/mL, the concentration at 12 h amounted to 390 ± 114 ng/mL and the concentration at 24 h stood at 185 ± 182 ng/mL. Also, under setting [1], the concentration at 48 h is 24 ± 20 ng/mL, the concentration at 72 h amounted to 15 ± 9 ng/mL and the concentration at 96 h was 25 ± 11 ng/mL. This molecule came in with a concentration at 36 h under setting [2] of 37 ± 15 ng/mL. Moreover, under setting [3], the Tmax was 6 h. Moreover, for the setting “male, Sprague-Dawley, n = 6”, the half-life was 11.3 ± 5.94 h. Under setting [4], the AUC(0-inf) was determined as 10000 ± 3340 ng·h/mL and the AUC(0-t) turned out to be 9660 ± 3380 ng·h/mL. For the setting “male, Sprague-Dawley, n = 6, M1/M2 relative concentrations from GLB standard curve, read-out: Cmax”, the Cmax was 540 ± 100 ng/mL. For the same molecule, the Tmax (n = 6) is listed as 7.33 ± 2.73 h.
